Results taken from patent US20230219969A1 (priority 2020, published 2023).

Columns and labels:
Rat cortical neurons [1] = assay: Neurite Outgrowth in Primary Neuronal Cultures Assay (Procedure B); assay type: cell-based; set-up: key: A: Statistically significant mean increase as a percent of DMSO control at 10 μM or less; B: No statistically significant mean increase as a percent of DMSO control at 10 μM or less; conditions: 72 h, percent of DMSO control at 10 μM or less
Text: Neurite Outgrowth in Primary Neuronal Cultures Assay (Procedure B). Changes in the pattern of neurite outgrowth have been implicated in psychiatric and neurodegenerative disorders as well as traumatic injuries. The discovery of new compounds that can positively affect neuritogenesis are important for developing new therapeutics for neurological diseases. Measurement of neurite outgrowth of rat cortical neurons using an automated image-based assay was used to determine the neuroplastic effects of the compounds of the present invention. The neurite outgrowth assay was performed at Neurofit SAS (France) as described below.
Pregnant Wistar rats (Janvier; France) were used for the study. They were delivered 6 days before their use. Upon arrival at Neurofit animal facility, they were housed one per cage and maintained in a room with controlled temperature (21-22° C.) and a reversed light-dark cycle (12 h/12 h; lights on: 17:30-05:30; lights off: 05:30-17:30) with food and water available ad libitum.
Female Wistar rats of 17 days gestation were killed by cervical dislocation and the fetuses were removed from the uterus. Their brains were placed in ice-cold medium of Leibovitz (L15, Gibco, Fisher bioblock, France). Cortices were dissected and meninges were carefully removed. The cortical neurons were dissociated by trypsinization for 30 min at 37° C. (trypsin-EDTA, Gibco) in presence of 0.1 mg/ml DNAse I (Roche, France). The reaction was stopped by addition of Dulbecco's Modified Eagle Medium (DMEM; Gibco) with 10% of fetal bovine serum (FBS; Gibco). The suspension was triturated with a 10-ml pipette and using a needle syringe 21G and centrifuged at 350×g for 10 min at room temperature. The pellet of dissociated cells was resuspended in a medium consisting of Neurobasal (Gibco) supplemented with 2% B27 supplement (Gibco), 0.5 mM L-Glutamine (Gibco), an antibiotic-antimicotic mixture. Viable cells were counted in a Neubauer cytometer using the trypan blue exclusion test (Sigma). Cells were seeded at a density of 10000 cells per well in 96-well plate (Costar) precoated with poly-L-lysine. Test compound at different concentrations were added to the cultures. Donepezil (positive control) was tested at 250 nM.
After 72 h (3 days) of plating, cultures were fixed with paraformaldehyde in PBS (4%, Sigma) for 30 min at 4° C. Then, cells were successively permeabilized with 0.1% Triton X100 for 30 min, saturated with PBS containing 3% of BSA and were incubated 1 h with anti-beta III tubulin antibody (Sigma) at 1/10 000 in PBS containing 0.5% of BSA. Cells were washed three times with PBS containing 0.5% of BSA, and they were incubated 1 h with goat anti-mouse antibody coupled with AF488 (Invitrogen A11001) diluted at 1/1000 in PBS containing 0.5% of BSA. Finally, nuclei were staining with DAPI 1 mg/ml at 1/1000 in PBS containing 0.5% of BSA. After rinsing with PBS, the plate was filmed and neurite networks were examined and analyzed using High-Content Screening (CellInsight, Thermo Scientific). The average number of neurites per neuron and the average total length of neurites per neuron were the main parameters analyzed. Analysis of data was performed using analysis of variance (ANOVA). The Fisher's Protected Least Significant Difference test was used for multiple comparisons. A p value<0.05 was considered significant. The software used is StatView 5.0 from SAS Institut.
In some embodiments, a compound of the present invention increases the pattern of neurite outgrowth. In some embodiments, a compound of the present invention increases neurite average length compared to a control. In some embodiments, a compound of the present invention increases neurite branch points compared to a control.

5HT2A [2] = molecular target: T1, 5HT2A (Homo sapiens, UniProt P28223); assay: cell-based
Method: Cell lines were expanded from freezer stocks according to standard procedures. Cells were seeded in a total volume of 20 μL into black-walled, clear-bottom, Poly-D-lysine coated 384-well microplates and incubated at 37° C. for the appropriate time prior to testing. Assays were performed in 1× Dye Loading Buffer consisting of 1× Dye, 1× Additive A and 2.5 mM Probenecid in HBSS/20 mM Hepes. Probenicid was prepared fresh. Cells were loaded with dye prior to testing. Media was aspirated from cells and replaced with 20 μL Dye Loading Buffer. Cells are incubated for 30-60 minutes at 37° C.
For agonist determination, cells were incubated with sample to induce response. After dye loading, cells were removed from the incubator and 10 μL HBSS/20 mM Hepes was added. […] Cells were incubated for 30 minutes at room temperature in the dark to equilibrate plate temperature. Intermediate dilution of sample stocks was performed to generate 4× sample in assay buffer. Compound agonist activity was measured on a FLIPR Tetra (MDS). Calcium mobilization is monitored for 2 minutes and 10 μL 4× sample in HBSS/20 mM Hepes was added to the cells 5 seconds into the assay.
Compound activity was analyzed using CBIS data analysis suite (ChemInnovation, CA). For agonist mode assays, percentage activity was calculated using the following formula:
% Activity=100%×(mean RFU of test sample−mean RFU of vehicle control)/(mean MAX RFU control ligand −mean RFU of vehicle control).

5HT2A [3] = molecular target: T1, 5HT2A; assay: Serotonin 5-HT2A in vitro cellular IPOne agonism assay; assay type: cell-based; set-up: host or cells: CHO-K1; conditions: CHO-K1 cells, IPOne HTRF; read-out: 5-HT2A IPOne Agonism Activity
Method: Serotonin 5-HT2A In Vitro Cellular IPOne Agonism Assay. The 5-HT2A IPOne HTRF assay was performed at Epics Therapeutics S.A. (Belgium, FAST-0505I) using conventional methods. Briefly, CHO-K1 cells expressing human recombinant 5-HT2A receptor grown to mid-log phase in culture media without antibiotics were detached with PBS-EDTA, centrifuged, and resuspended in medium without antibiotics buffer. 20,000 cells are distributed in a 96 well plate and incubated overnight at 37° C. with 5% CO2.
For agonist testing, the medium is removed and 20 μl of assay buffer plus 20 μl of test compound or reference agonist are added in each well. The plate is incubated for 60 min. at 37° C. with 5% CO2.
After addition of the lysis buffer containing IP1-d2 and anti-IP1 cryptate detection reagents, plates are incubated 1-hour at room temperature, and fluorescence ratios are measured according to the manufacturer specification, with the HTRF kit.
(§1) The compounds provided herein were tested in the Serotonin 5-HT2A and 5-HT2C in vitro radioligand binding and cellular IPOne agonism assays. The binding and agonism functional potencies of several compound provided herein compounds (as indicated by their IC50s or EC50s) are shown in Table 11.

5HT2A [4] = molecular target: T1, 5HT2A; assay: Serotonin 5-HT2A in vitro radioligand binding competition assay ([3H]-DOI); set-up: purchased Epics Therapeutics S.A. (Belgium) FAST-0505B; conditions: [3H]-DOI competition, membrane extracts; read-out: 5-HT2A Radioligand Binding Activity
Method: Serotonin 5-HT2A In Vitro Radioligand Binding Competition Assay. The 5-HT2A radioligand binding competition assay was performed at Epics Therapeutics S.A. (Belgium, FAST-0505B) using conventional methods. Briefly, competition binding is performed in duplicate in the wells of a 96 well plate (Master Block, Greiner, 786201) containing binding buffer (optimized for each receptor), membrane extracts (amount of protein/well optimized for each receptor), radiotracer [^3H]-DOI (final concentration optimized for each receptor) and test compound. Nonspecific binding is determined by co-incubation with 200-fold excess of cold competitor. The samples are incubated in a final volume of 0.1 ml at a temperature and for a duration optimized for each receptor and then filtered over filter plates. Filters are washed six times with 0.5 ml of ice-cold washing buffer (optimized for each receptor) and 50 μl of Microscint 20 (Packard) are added in each well. The plates are incubated 15 min on an orbital shaker and then counted with a TopCount™ for 1 min/well.
as §1

Rat cortical neurons [5] = assay: Neurite Outgrowth Assay (Procedure A); assay type: cell-based; conditions: 1 hour treatment at DIV 4, analyzed DIV 7
Text: Neurite outgrowth assay. Changes in the pattern of neurite outgrowth have been implicated in neurodegenerative disorders as well as traumatic injuries. The discovery of new compounds that can positively affect neuritogenesis are important for developing new therapeutics for neurological diseases. Measurement of neurite outgrowth of rat cortical neurons using an automated image-based assay is used to determine the neuroplastic effects of the compounds provided herein. In some embodiments, a compound provided herein increases the pattern of neurite outgrowth. In some embodiments, a compound provided herein increases neurite average length compared to a control. In some embodiments, a compound provided herein increases neurite branch points compared to a control. In some embodiments, a compound provided herein increases neurite average length and neurite branch points compared to a control.
In some embodiments, the plastogenic potential of compounds provided herein is assessed by measuring the changes in neurite development. In some embodiments, the plastogenic potential (as measured by Neurite Outgrowth Procedure A) of the compounds is shown in Table 10.
Neurite Outgrowth Assay (Procedure A). Rat cortical neurons (20,000 cells/well) were freshly isolated from embryonic day 18 rats and cultured in Neurobasal Medium (+B27). The cultured cells were plated in 96 well-plates (avoiding external wells). At DIV 4, the neurons were treated with compound or control (10 μM) for 1 hour followed by complete washout of the compound. At DIV 7, the neurons were analyzed. The experiments were performed in triplicate. Neurite outgrowth was measured analyzing the following parameters: Number of Cell Bodies, total neurite length (pixels), Root Count, Segments, Extremities Count and node points. Changes in the pattern of neurite outgrowth of the neurons were analyzed by immunocytochemistry against […]. Pictures were acquired by the CellInsight CX7 from Thermo Fisher and analyzed using its software. Results generated in the equipment were maximum neurite length, extremity count, root count, dendrite branch points, and total neurite length. The results were compared the percent of DMSO control, representing the percentage of outgrowth compare to vehicle control in neuronal outgrowth.

5HT2A [6] = assay type: cell-based; conditions: result in words
mice = assay: Head-twitch response (HTR) in mice; assay type: in vivo; conditions: hallucinogenic potential
5HT2A [7] = conditions: result in words

T1 sequence (P28223 whole entry): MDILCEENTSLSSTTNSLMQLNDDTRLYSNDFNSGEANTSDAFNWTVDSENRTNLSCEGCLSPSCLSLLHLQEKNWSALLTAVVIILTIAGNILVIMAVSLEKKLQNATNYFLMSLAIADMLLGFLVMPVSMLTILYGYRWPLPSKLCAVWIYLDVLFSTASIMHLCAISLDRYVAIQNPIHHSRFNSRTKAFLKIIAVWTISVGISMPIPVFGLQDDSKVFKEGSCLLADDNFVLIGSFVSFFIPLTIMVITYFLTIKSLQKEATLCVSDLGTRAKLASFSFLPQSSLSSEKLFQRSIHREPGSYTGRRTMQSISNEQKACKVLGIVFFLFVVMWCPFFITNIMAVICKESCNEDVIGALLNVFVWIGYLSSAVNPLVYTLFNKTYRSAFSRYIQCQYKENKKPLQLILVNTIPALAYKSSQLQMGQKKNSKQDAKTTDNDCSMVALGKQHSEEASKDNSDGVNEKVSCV

SMILES	Increase in Neurite Length (Rat cortical neurons [1])	Increase in Neurite Number (Rat cortical neurons [1])	EC50 (5HT2A [2])	EC50 (5HT2A [3])	IC50 (5HT2A [4])	Neurite Average Length @ 10 μM (Rat cortical neurons [5])	Neurite Branch Points: @ 10 μM (Rat cortical neurons [5])	activation of 5HT2A sensor assay in agonist mode (5HT2A [6])	head-twitch response (HTR) (mice)	competition with 5-HT in 5HT2A sensor assay in antagonist mode (5HT2A [7])
COc1ccc2c(ccn2CCN(C)C)n1 [Example 3, 2-(5-methoxy-1H-pyrrolo[3,2-b]pyridin-1-yl)-N,N-dimethylethan-1-amine]	A	B	> 110 µM	> 10 µM	0.101 to 1 µM	B (100%-200% vehicle)	A (>200% vehicle)	–	–	–
COc1cc2ccn(CCN(C)C)c2cn1 [Example 4, 2-(5-methoxy-1H-pyrrolo[2,3-c]pyridin-1-yl)-N,N-dimethylethan-1-amine]	A	A	> 110 µM	> 10 µM	1 to 10 µM	B (100%-200% vehicle)	B (100%-200% vehicle)	–	–	–
COc1cnc2c(ccn2CCN(C)C)c1 [Example 5, 2-(5-methoxy-1H-pyrrolo[2,3-b]pyridin-1-yl)-N,N-dimethylethan-1-amine]	B	B	> 110 µM	> 10 µM	0.101 to 1 µM	B (100%-200% vehicle)	C (<100% vehicle)	–	–	–
COc1ccc2[nH]cc(CCN(C)C)c2c1 [Example 5-MeO-DMT]	–	–	–	–	–	–	–	activate the 5HT2A sensor assay in agonist mode	produces a robust, dose-dependent head-twitch response	–
CN(C)CCn1ccc2cncnc21 [Example 6, N,N-dimethyl-2-(7H-pyrrolo[2,3-d]pyrimidin-7-yl)ethan-1-amine]	B	B	> 110 µM	> 10 µM	1 to 10 µM	A (>200% vehicle)	A (>200% vehicle)	–	–	–
COc1ccc2c(CCN(C)C)c[nH]c2c1 [Example 6-MeO-DMT]	–	–	–	–	–	–	–	do not activate the 5HT2A sensor assay in agonist mode	does not produce a HTR	compete off 5-HT
CN(C)CCn1ccc2cnccc21 [Example 7, N,N-dimethyl-2-(1H-pyrrolo[3,2-c]pyridin-1-yl)ethan-1-amine]	A	B	> 110 µM	> 10 µM	> 10 µM	B (100%-200% vehicle)	A (>200% vehicle)	–	–	–
COc1ccc2c(c1)CCN2CCN(C)C [Example 8, 2-(5-methoxyindolin-1-yl)-N,N-dimethylethan-1-amine]	A	B	> 110 µM	> 10 µM	> 10 µM	B (100%-200% vehicle)	A (>200% vehicle)	–	–	–
